Among the data in PubChem BioAssay (NCI) are TGI values, retold here.

Each structure is given as a SMILES string.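 Dose response: 5 concentrations. Exposure: 48 h. Format: 96-well plates. Endpoint: linear interpolation; highest concentration if not reached. Definition used: TGI = concentration required for complete inhibition of growth.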

Test systems include MOLT-4 leukemia; COLO 205 colon; OVCAR-4 ovarian; NCI-H23 lung; SF-539 CNS; MDA-MB-435; HOP-92 NSCLC; T-47D breast; HOP-62 NSCLC; RXF 393 renal; U251 CNS; SF-295 CNS; UACC-62 melanoma; KM12 colon.
Assay in all cases: NCI tumour cell line growth inhibition, 48 h

Regarding `COc1cc(/C=C2\CC3C4CC[C@H]5C[C@@H](O)CC[C@]5(C)C4CC[C@]3(C)C2=O)cc(OC)c1OC` (stereo not given in full), the TGI is 69.5 µM in the experiment on MOLT-4 leukemia; 26.1 µM with COLO 205 colon; 57.2 µM in the experiment with OVCAR-4 ovarian; over 100 µM with NCI-H23 lung; 98.2 µM with SF-539 CNS; 85.8 µM in the experiment with MDA-MB-435. Moreover, the TGI was over 100 µM with HOP-92 NSCLC; 34.8 µM in the experiment with T-47D breast; 49.2 µM in the experiment on HOP-62 NSCLC; over 100 µM in the experiment with RXF 393 renal; 41.5 µM in the experiment with U251 CNS; 21.5 µM in the experiment with SF-295 CNS. Besides, the figures for the TGI in the experiment with UACC-62 melanoma and in the experiment on KM12 colon were 44.9 µM and 73.7 µM, respectively.
Turning to `N/C(COc1ccc(Cl)cc1)=N\NC(=O)c1ccncc1`, the TGI with MOLT-4 leukemia, in the experiment on COLO 205 colon, with OVCAR-4 ovarian, in the experiment on NCI-H23 lung, in the experiment with SF-539 CNS and in the experiment with MDA-MB-435 was over 100 µM throughout. In addition, the TGI in the experiment with HOP-92 NSCLC, in the experiment with T-47D breast, in the experiment on HOP-62 NSCLC, with RXF 393 renal, in the experiment on U251 CNS and with SF-295 CNS was over 100 µM throughout. Also, the TGI in the experiment on UACC-62 melanoma and in the experiment with KM12 colon was over 100 µM in each case.
In the case of `CN1CCN(CCCCN2c3ccccc3Sc3ccc(N=[N+]=[N-])cc32)CC1`, the TGI with MOLT-4 leukemia came out at 7.24 µM; in the experiment with COLO 205 colon it was 3.51 µM; with OVCAR-4 ovarian, 23.6 µM; in the experiment with NCI-H23 lung, 35.7 µM; with SF-539 CNS it was 20.4 µM; in the experiment with MDA-MB-435, 3.94 µM. The TGI in the experiment on HOP-92 NSCLC amounted to 12.3 µM; in the experiment on T-47D breast, 36.2 µM; in the experiment with HOP-62 NSCLC it was 33.8 µM; in the experiment on RXF 393 renal it was 19.1 µM; in the experiment with U251 CNS, 16.9 µM; in the experiment on SF-295 CNS it was 27.9 µM. Further, the TGI came out at 4.1 µM with UACC-62 melanoma and 20.8 µM in the experiment on KM12 colon.
Turning to `COc1ccc2c(c1)CCCN1Cc3ccccc3CC21` (stereo not given), the TGI with MOLT-4 leukemia, with COLO 205 colon, in the experiment with OVCAR-4 ovarian, in the experiment with NCI-H23 lung, in the experiment on SF-539 CNS and in the experiment with MDA-MB-435 was over 100 µM each time. In addition, the TGI with HOP-92 NSCLC, in the experiment with T-47D breast, in the experiment with HOP-62 NSCLC, in the experiment on RXF 393 renal, with U251 CNS and in the experiment with SF-295 CNS was over 100 µM each time. The TGI in the experiment on UACC-62 melanoma and with KM12 colon was over 100 µM in each case.
With `Fc1ccc(Nc2nnc(-c3ccccn3)s2)cc1`, the TGI in the experiment with MOLT-4 leukemia, in the experiment on COLO 205 colon, in the experiment on OVCAR-4 ovarian, with NCI-H23 lung, with SF-539 CNS and with MDA-MB-435 was over 100 µM throughout. Also, the TGI with HOP-92 NSCLC, in the experiment on T-47D breast, in the experiment on HOP-62 NSCLC, in the experiment with RXF 393 renal, in the experiment with U251 CNS and in the experiment with SF-295 CNS was over 100 µM each time. The TGI in the experiment on UACC-62 melanoma and with KM12 colon was over 100 µM each time.
Take `CC(=O)N1C2=CCCC2(C)c2ccccc21` (stereo not given): the TGI with MOLT-4 leukemia, in the experiment on COLO 205 colon, in the experiment with OVCAR-4 ovarian, with NCI-H23 lung, in the experiment with SF-539 CNS and with MDA-MB-435 was over 100 µM in each case. In addition, the TGI in the experiment with HOP-92 NSCLC, in the experiment with T-47D breast, in the experiment with HOP-62 NSCLC, in the experiment with RXF 393 renal, in the experiment with U251 CNS and with SF-295 CNS was over 100 µM throughout. Moreover, the TGI in the experiment with UACC-62 melanoma and in the experiment on KM12 colon was over 100 µM in each case.
On to `CC[N+]1(C)CCC(O)(/C=C/c2ccc(Cl)cc2)C(C(=O)/C=C/c2ccc(Cl)cc2)C1` (stereo not given), for which the TGI in the experiment on MOLT-4 leukemia is 6.52 µM; in the experiment on COLO 205 colon, over 26.5 µM; in the experiment with OVCAR-4 ovarian, over 67.2 µM; in the experiment on NCI-H23 lung, 30.3 µM; in the experiment on SF-539 CNS, over 20.5 µM; in the experiment on MDA-MB-435 it was 22.4 µM. Also, the TGI in the experiment on HOP-92 NSCLC is 9.11 µM; in the experiment with T-47D breast it was 77.4 µM; in the experiment with HOP-62 NSCLC it was 39.3 µM; in the experiment on RXF 393 renal, 25.4 µM; in the experiment with U251 CNS it was 20.8 µM; with SF-295 CNS, 37 µM. For the same compound, the TGI with UACC-62 melanoma is 37.4 µM; in the experiment with KM12 colon, 10.3 µM.
Take `CC(=O)N1N=C(c2c(O)ccc3ccccc23)CC1c1ccc(Cl)cc1` (stereo not given): the TGI in the experiment on MOLT-4 leukemia is 31 µM; in the experiment on COLO 205 colon it was 39.2 µM; in the experiment on OVCAR-4 ovarian, over 100 µM; in the experiment on NCI-H23 lung, 46.5 µM; in the experiment with SF-539 CNS it was 37.4 µM; in the experiment with MDA-MB-435 it was 51.9 µM. The TGI is 39.5 µM with HOP-92 NSCLC; over 100 µM with T-47D breast; 37 µM with HOP-62 NSCLC; 42.9 µM in the experiment on RXF 393 renal; 63.1 µM with U251 CNS; 54.2 µM in the experiment on SF-295 CNS. Moreover, the TGI in the experiment with UACC-62 melanoma stood at 27.6 µM; in the experiment on KM12 colon it was 29.9 µM.
Take `O=C(OC(/C=C/c1ccccc1)P1(=O)N(Cc2ccccc2)[C@@H]2CCCC[C@H]2N1Cc1ccccc1)c1ccccc1` (stereo not given in full): the TGI is 6.47 µM with MOLT-4 leukemia; 4.75 µM in the experiment with COLO 205 colon; over 100 µM in the experiment with OVCAR-4 ovarian; over 31.5 µM in the experiment on NCI-H23 lung; over 100 µM in the experiment on SF-539 CNS; over 100 µM in the experiment with MDA-MB-435. Besides, the TGI in the experiment on HOP-92 NSCLC was 8.08 µM; with T-47D breast it was over 100 µM; in the experiment with HOP-62 NSCLC it was over 100 µM; with RXF 393 renal, over 100 µM; in the experiment with U251 CNS it was over 100 µM; with SF-295 CNS, over 100 µM. For the same compound, the TGI in the experiment on UACC-62 melanoma and with KM12 colon was over 100 µM each time.
Turning to `CN(C)/C=C/c1ccncc1`, the TGI in the experiment on MOLT-4 leukemia, in the experiment on COLO 205 colon, in the experiment on OVCAR-4 ovarian, in the experiment on NCI-H23 lung, in the experiment on SF-539 CNS and in the experiment with MDA-MB-435 was over 100 µM throughout. Moreover, the TGI in the experiment on HOP-92 NSCLC, in the experiment with T-47D breast, with HOP-62 NSCLC, in the experiment with RXF 393 renal, in the experiment on U251 CNS and in the experiment with SF-295 CNS was over 100 µM each time. Besides, the TGI in the experiment on UACC-62 melanoma and in the experiment with KM12 colon was over 100 µM throughout.
For the compound `CCCCCCCCCC1CC(=O)NCC(=O)NC(C(C)C)C(=O)NC(CC(C)C)C(=O)NC(C)C(=O)NC(C(C)C)C(=O)O1` (stereo not given), the TGI in the experiment on MOLT-4 leukemia is over 52.4 µM; with COLO 205 colon it was over 100 µM; with OVCAR-4 ovarian, 25.4 µM; in the experiment on NCI-H23 lung, 42.2 µM; with SF-539 CNS, 43.4 µM; with MDA-MB-435, 49.8 µM. The TGI in the experiment on HOP-92 NSCLC is 41.9 µM; in the experiment with T-47D breast it was over 100 µM; in the experiment with HOP-62 NSCLC, 55 µM; with RXF 393 renal, over 94.9 µM; in the experiment on U251 CNS, 29.7 µM; in the experiment with SF-295 CNS, 37 µM. The results for the TGI with UACC-62 melanoma and in the experiment on KM12 colon were 83.7 µM and 33.9 µM, respectively.
Take `CCN1C[C@]2(C)CC[C@H](OCc3ccccc3)C34C5C[C@@H]6CC[C@](O)(C(C[C@@H]32)C14)C5[C@H]6OCc1ccccc1` (stereo not given in full): the TGI in the experiment with MOLT-4 leukemia, in the experiment on COLO 205 colon, with OVCAR-4 ovarian, with NCI-H23 lung, in the experiment with SF-539 CNS and in the experiment with MDA-MB-435 was over 100 µM each time. Besides, the TGI in the experiment on HOP-92 NSCLC, in the experiment with T-47D breast, in the experiment with HOP-62 NSCLC, in the experiment with RXF 393 renal, with U251 CNS and in the experiment with SF-295 CNS was over 100 µM throughout. The TGI with UACC-62 melanoma and with KM12 colon was over 100 µM in each case.
With `C/C1=C\CC/C(C)=C/C=C(/C(C)C)CC/C(C(=O)O)=C/CC1`, the TGI in the experiment on MOLT-4 leukemia was over 100 µM; in the experiment on COLO 205 colon, 43.2 µM; in the experiment with OVCAR-4 ovarian, over 100 µM; in the experiment on NCI-H23 lung, over 100 µM; in the experiment with SF-539 CNS it was over 100 µM; in the experiment on MDA-MB-435, over 100 µM. For the same compound, the TGI in the experiment with HOP-92 NSCLC is over 100 µM; in the experiment with T-47D breast it was 75.6 µM; in the experiment on HOP-62 NSCLC, over 100 µM; in the experiment with RXF 393 renal it was over 100 µM; in the experiment on U251 CNS, over 100 µM; in the experiment with SF-295 CNS, 78.3 µM. Moreover, the TGI in the experiment with UACC-62 melanoma and with KM12 colon was over 100 µM each time.
With `CC(=O)OC[C@@H](OC(C)=O)[C@@H](OC(C)=O)[C@H]1OC[C@@H]2C[C@H]([C@H]1OC(C)=O)N(Cc1ccccc1)O2`, the TGI in the experiment on MOLT-4 leukemia, in the experiment with COLO 205 colon, with OVCAR-4 ovarian, in the experiment on NCI-H23 lung, in the experiment on SF-539 CNS and in the experiment on MDA-MB-435 was over 100 µM each time. Moreover, the TGI in the experiment with HOP-92 NSCLC, with T-47D breast, in the experiment on HOP-62 NSCLC, in the experiment on RXF 393 renal, with U251 CNS and in the experiment on SF-295 CNS was over 100 µM each time. The TGI in the experiment on UACC-62 melanoma and with KM12 colon was over 100 µM in each case.
Turning to `O=C1c2ccccc2-c2c1c(-c1ccccc1)c1n2C2(C(=O)c3ccccc3C2=O)C2C(=O)N(c3ccccc3)C(=O)C12` (stereo not given), the TGI in the experiment with MOLT-4 leukemia is over 100 µM; in the experiment on COLO 205 colon, 50.7 µM; in the experiment with OVCAR-4 ovarian it was over 100 µM; in the experiment on NCI-H23 lung it was 37.4 µM; in the experiment on SF-539 CNS, 37.5 µM; with MDA-MB-435 it was 50.3 µM. Besides, the TGI in the experiment with HOP-92 NSCLC was 73.7 µM; in the experiment with T-47D breast it was 65.7 µM; with HOP-62 NSCLC, 63.7 µM; in the experiment with RXF 393 renal it was 41.5 µM; in the experiment with U251 CNS it was over 100 µM; in the experiment on SF-295 CNS, over 100 µM. In addition, the TGI with UACC-62 melanoma is 49 µM; in the experiment on KM12 colon, 47.9 µM.
